Laboratory results as given in patent publication US20170305992A1, “NOVEL PEPTIDES AND COMBINATION OF PEPTIDES FOR USE IN IMMUNOTHERAPY AGAINST VARIOUS TUMORS” (IMMATICS BIOTECHNOLOGIES GMBH, priority 2015, published 2017).

Test system: CD8+ T cells
Assay: In vitro T-cell priming assay with aAPCs loaded with peptide/MHC and anti-CD28, pMHC multimer readout (in vitro immunogenicity)
Assay type: cell-based, human
Conditions: for Wells positive [%]: HLA-A*02 restricted peptides, Table 6B; for in vitro immunogenicity: donors: percentage of positive donors; for in vitro immunogenicity: donors / in vitro immunogenicity: wells: HLA class I peptides, Table 6A; for in vitro immunogenicity: wells: percentage of positive wells
Source text: In order to obtain information regarding the immunogenicity of the TUMAPs of the present invention, the inventors performed investigations using an in vitro T-cell priming assay based on repeated stimulations of CD8+ T cells with artificial antigen presenting cells (aAPCs) loaded with peptide/MHC complexes and anti-CD28 antibody.
In order to perform in vitro stimulations by artificial antigen presenting cells loaded with peptide-MHC complex (pMHC) and anti-CD28 antibody, the inventors first isolated CD8+ T cells from fresh HLA-A*02 leukapheresis products via positive selection using CD8 microbeads (Miltenyi Biotec, Bergisch-Gladbach, Germany) of healthy donors obtained from the University clinics Mannheim, Germany, after informed consent. PBMCs and isolated CD8+ lymphocytes were incubated in T-cell medium (TCM) until use consisting of RPMI-Glutamax (Invitrogen, Karlsruhe, Germany) supplemented with 10% heat inactivated human AB serum (PAN-Biotech, Aidenbach, Germany), 100 U/ml Penicillin/100 μg/ml Streptomycin (Cambrex, Cologne, Germany), 1 mM sodium pyruvate (CC Pro, Oberdorla, Germany), 20 μg/ml Gentamycin (Cambrex). 2.5 ng/ml IL-7 (PromoCell, Heidelberg, Germany) and 10 U/ml IL-2 (Novartis Pharma, Nürnberg, Germany) were also added to the TCM at this step. Generation of pMHC/anti-CD28 coated beads, T-cell stimulations and readout was performed in a highly defined in vitro system using four different pMHC molecules per stimulation condition and 8 different pMHC molecules per readout condition.
The purified co-stimulatory mouse IgG2a anti human CD28 Ab 9.3 (Jung et al., 1987) was chemically biotinylated using Sulfo-N-hydroxysuccinimidobiotin as recommended by the manufacturer (Perbio, Bonn, Germany). Beads used were 5.6 μm diameter streptavidin coated polystyrene particles (Bangs Laboratories, Ill., USA).
pMHC used for positive and negative control stimulations were A*0201/MLA-001 (peptide […] (SEQ ID NO. 289) from modified Melan-A/MART-1) and A*0201/DDX5-001 ([…] from DDX5, SEQ ID NO. 290), respectively.
800.000 beads/200 μl were coated in 96-well plates in the presence of 4×12.5 ng different biotin-pMHC, washed and 600 ng biotin anti-CD28 were added subsequently in a volume of 200 μl. Stimulations were initiated in 96-well plates by co-incubating […] CD8+ T cells with 2×10^5 washed coated beads in 200 μl TCM supplemented with 5 ng/ml IL-12 (PromoCell) for 3 days at 37° C. Half of the medium was then exchanged by fresh TCM supplemented with 80 U/ml IL-2 and incubating was continued for 4 days at 37° C. This stimulation cycle was performed for a total of three times. For the pMHC multimer readout using 8 different pMHC molecules per condition, a two-dimensional combinatorial coding approach was used as previously described (Andersen et al., 2012) with minor modifications encompassing coupling to 5 different fluorochromes. Finally, multimeric analyses were performed by staining the cells with Live/dead near IR dye (Invitrogen, Karlsruhe, Germany), CD8-FITC antibody clone SK1 (BD, Heidelberg, Germany) and fluorescent pMHC multimers. For analysis, a BD LSRII SORP cytometer equipped with appropriate lasers and filters was used. Peptide specific cells were calculated as percentage of total CD8+ cells. Evaluation of multimeric analysis was done using the FlowJo software (Tree Star, Oreg., USA). In vitro priming of specific multimer+CD8+ lymphocytes was detected by comparing to negative control stimulations.
Exemplary flow cytometry results after TUMAP-specific multimer staining for peptides of the invention are shown in FIG. 3 together with corresponding negative controls.

Substance	Wells positive [%]	further results
66 (AMFPDTIPRV; listed as Homo sapiens) [compound 66]	+ (<20% = +)	
27 (GLLGKVTSV; listed as Homo sapiens) [compound 27]	+ (<20% = +)	
48 (KISDFGLATV; listed as Homo sapiens) [compound 48]	++ (20% - 49% = ++)	
50 (ILLSVLHQL; listed as Homo sapiens) [compound 50]	+ (<20% = +)	
234 (VLLNEILEQV; listed as Homo sapiens) [compound 234]	++ (20% - 49% = ++)	
236 (KMSELQTYV; listed as Homo sapiens) [compound 236]	+ (<20% = +)	
29 (KMISAIPTL; listed as Homo sapiens) [compound 29]	+ (<20% = +)	
263 (SIIEYLPTL; listed as Homo sapiens) [compound 263]	+ (<20% = +)	
253 (KLLAVIHEL; listed as Homo sapiens) [compound 253]	++ (20% - 49% = ++)	
77 (ALYGNVQQV; listed as Homo sapiens) [compound 77]	+ (<20% = +)	
89 (SLAETIFIV; listed as Homo sapiens) [compound 89]	+ (<20% = +)	
92 (RLFEEVLGV; listed as Homo sapiens) [compound 92]	++ (20% - 49% = ++)	
260 (ALNESLVEC; listed as Homo sapiens) [compound 260]	+ (<20% = +)	
9 (SLITGQDLLSV; listed as Homo sapiens) [compound 9]	+ (<20% = +)	
246 (ALAGIVTNV; listed as Homo sapiens) [compound 246]	+ (<20% = +)	
255 (FLMKNSDLYGA; listed as Homo sapiens) [compound 255]	+ (<20% = +)	
4 (VLFGELPAL; listed as Homo sapiens) [compound 4]	+ (<20% = +)	
97 (KLFEKSTGL; listed as Homo sapiens) [compound 97]	+ (<20% = +)	
275 (AVPPPPSSV; listed as Homo sapiens) [compound 275]	++ (20% - 49% = ++)	
288 (SLYKGLLSV; listed as Homo sapiens) [compound 288]		in vitro immunogenicity: donors: ++++ (> = 70% = ++++); in vitro immunogenicity: wells: ++ (21% - 49% = ++)
248 (VLMQDSRLYL; listed as Homo sapiens) [compound 248]	++ (20% - 49% = ++)	

Substance	Wells positive [%]	further results
157 (ILQDGQFLV; listed as Homo sapiens) [compound 157]	+ (<20% = +)	
166 (LLGDSSFFL; listed as Homo sapiens) [compound 166]	++ (20% - 49% = ++)	
242 (KLQEEIPVL; listed as Homo sapiens) [compound 242]	+ (<20% = +)	
251 (LLWGNLPEI; listed as Homo sapiens) [compound 251]	++ (20% - 49% = ++)	
35 (VIIKGLEEI; listed as Homo sapiens) [compound 35]	+ (<20% = +)	
7 (ALLQALMEL; listed as Homo sapiens) [compound 7]	++ (20% - 49% = ++)	
254 (ALGDKFLLRV; listed as Homo sapiens) [compound 254]	+ (<20% = +)	
101 (SLLEVNEASSV; listed as Homo sapiens) [compound 101]	+ (<20% = +)	
267 (YLLDMPLWYL; listed as Homo sapiens) [compound 267]	+ (<20% = +)	
121 (ALYVQAPTV; listed as Homo sapiens) [compound 121]	+ (<20% = +)	
261 (GLAALAVHL; listed as Homo sapiens) [compound 261]	++ (20% - 49% = ++)	
117 (TLLEGISRA; listed as Homo sapiens) [compound 117]	++ (20% - 49% = ++)	
102 (GLYPVTLVGV; listed as Homo sapiens) [compound 102]	+ (<20% = +)	
11 (LLDPKTIFL; listed as Homo sapiens) [compound 11]	++ (20% - 49% = ++)	
14 (YTFSGDVQL; listed as Homo sapiens) [compound 14]	+ (<20% = +)	
257 (KLIDHQGLYL; listed as Homo sapiens) [compound 257]	+ (<20% = +)	
287 (KIQEILTQV; listed as Homo sapiens) [compound 287]		in vitro immunogenicity: donors: +++ (50% - 69% = +++); in vitro immunogenicity: wells: + (<20% = +)
233 (SLFESLEYL; listed as Homo sapiens) [compound 233]	+ (<20% = +)	
17 (GLLPSAESIKL; listed as Homo sapiens) [compound 17]	+ (<20% = +)	
264 (TLHDQVHLL; listed as Homo sapiens) [compound 264]	+ (<20% = +)	
